# Assay results reported in PubChem BioAssay AID179 (DTP/NCI, 2004).
# Calls of active or inactive are those of the source.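 The calls were made as follows: active = compounds giving half or more protection of infected cells from virus-caused growth loss, again on retest; inactive = the rest.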 Where a SMILES comes first, the peptide text is derived from it. [ ]: non-standard residue; d: D form. The star is where a group is joined. X4 = CC(C)(C)c1cc(OCC(=O)*)ccc1Sc1c(O)cc(-c2ccccc2)oc1=O; NMeLeu(3R-OH) = CN[C@H](C(=O)O)[C@H](O)C(C)C; NMeL = CN[C@@H](CC(C)C)C(=O)O; NMeV = CN[C@H](C(=O)O)C(C)C; dNMeS = CN[C@H](CO)C(=O)O; Abu = CC[C@H](N)C(=O)O
# System: CEM cells HIV-1 protection, formazan growth assay
# Assay: NCI AIDS Antiviral Assay
# Conditions: for IC50: measured here: growth of uninfected CEM cells
# Method in brief: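 Human CEM cells, uninfected and HIV-1-infected, received five drug concentrations, and growth was read by soluble formazan assay. Compounds giving at least 50% protection were retested; reproducible 100% protection defined confirmed active.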
Structure (SMILES),EC50 [µM],IC50 [µM],outcome
CN1C(=O)C(C)(C)C(=O)c2ccccc21,> 200,> 200,
Cc1cn(C2OC(CO[Si](C)(C)C(C)(C)C)/C(=C\C#N)C2O[Si](C)(C)C(C)(C)C)c(=O)[nH]c1=O (centres undefined),> 200,> 200,
CC(C)OP(=O)(OC(C)C)C(=NCCN=C(NNc1ccc([N+](=O)[O-])cc1)P(=O)(OC(C)C)OC(C)C)NNc1ccc([N+](=O)[O-])cc1,> 7.24,> 7.24,
O=C1c2cccc3cccc(c23)C(=O)N1CCCCCCCCN1C(=O)c2cccc3cccc(c23)C1=O,> 200,14.8,
O=C1c2n[nH]nc2C(=O)c2n[nH]nc21,> 200,> 200,
Cc1ccc(/C=C2\N=C(N3CCCCC3)NC2=O)cc1,> 200,191,
Cn1c([N+](=O)[O-])cnc1N1CCN(c2nncs2)C1=O,> 200,> 200,
Cc1cc2c(C(C)C)c(O)c(O)c(C=Nc3ccccc3O)c2c(O)c1-c1c(C)cc2c(C(C)C)c(O)c(O)c(C=Nc3ccccc3O)c2c1O,> 200,3.24,
c1nc2cscc2c2cscc12,,,inactive
CCN(CC)CC(C(=O)Nc1c(C)cccc1C)/C(C)=N\NC(=S)NN (centres undefined),> 35.5,> 35.5,
CCOC(=O)Nc1nc2c(s1)c([N+](=O)[O-])cn2C,> 69.2,27.5,
COC(=O)CCCc1c(-c2[nH]c3ccccc3c2CCCC(=O)OC)[nH]c2ccccc12,> 200,> 200,
CCOC(=O)C/C(C)=N\NC(=O)c1ccncc1,> 200,> 200,
COc1cccc2c1C(=O)c1ccc3cc(CCl)cc(O)c3c1C2=O,> 200,0.468,
NC(=O)N/N=C(\CC1OC(=O)c2ccccc21)c1ccco1 (centres undefined),> 832,> 832,
COc1c(Sc2c(SCSc3cnc4ccccc4c3Sc3cnc4ccccc4c3OC)cnc3ccccc23)cnc2ccccc12,> 100,> 100,

Structure (SMILES),EC50 [µM],IC50 [µM],outcome
CCOC(=O)/C(=C\c1cccc(C#N)c1)C(C)=O,> 389,28.2,
O=C(O)c1cc(-n2c(-c3ccccc3)cc3c2CCc2ccccc2-3)ccc1O,,,inactive
COC(=O)c1cc(OC)c(OC)c(OC)c1-c1cc2c(cc1C=O)OCO2,> 132,120,
C1N2CN3CN1CN(C2)C3,> 200,151,
COC(=O)/C(C#N)=C(/NCc1ccccc1)Nc1ccccc1,> 200,22.4,
CCN(CC)CCNc1ccc(Cl)cc1N,> 200,39.8,
COC(=O)C(=O)C(C(=O)C(=O)Nc1ccc(OC)cc1[N+](=O)[O-])c1nc2ccc([N+](=O)[O-])cc2[nH]c1=O (centres undefined),> 182,170,
CCOC(=O)C1C(=O)CC1(C)C (centres undefined),> 200,> 200,
Nc1c(-c2nc3ccccc3[nH]2)sc(=S)n1-c1ccc(Cl)cc1,> 14.5,> 14.5,
COc1ccc(N2C(=O)[C@@H](N=[N+]=[N-])[C@@H]2[C@H]2COC(C)(C)O2)cc1,> 407,> 407,
N#Cc1c(N)nc(Nc2cccc3ccccc23)c(C#N)c1C#N,,,inactive
CC[C@@H]1NC(=O)[C@H]([C@H](O)C(C)C)N(C)C(=O)[C@H](C(C)C)N(C)C(=O)[C@H](CC(C)C)N(C)C(=O)[C@H](CC(C)C)N(C)C(=O)[C@@H](C)NC(=O)[C@H](CCCCNC(=O)COc2ccc(Sc3c(O)cc(-c4ccccc4)oc3=O)c(C(C)(C)C)c2)NC(=O)[C@H](CC(C)C)N(C)C(=O)[C@H](C(C)C)NC(=O)[C@H](CC(C)C)N(C)C(=O)[C@@H](CO)N(C)C1=O (cyclo([Abu][dNMeS][NMeL]V[NMeL]K(X4)[dA][NMeL][NMeL][NMeV][NMeLeu(3R-OH)])),> 67.6,4.57,
CCOC(=O)/C(=C/c1ccc(C)cc1)C(=O)c1ccccc1,> 24.5,15.1,
O=C1c2ccccc2C(=O)N1/N=C\c1ccc(Br)cc1,> 21.9,> 21.9,
CCOC(=O)C(C[Si](C)(C)C)P(=O)(OCC)OCC (centres undefined),> 575,537,
